{"source": "patent US20110160280A1", "about": "“CANCER-RELATED GENES, CDCA5, EPHA7, STK31 AND WDHD1” (Oncotherapy Science, Inc., priority 2007, published 2011)", "key": {"SBC-5 cells": {"test_system": "SBC-5 cells", "test": "RNA interference assay (oligo based): colony formation and MTT assays", "format": "cell-based, human", "conditions": "7 days after transfection", "protocol": "(§1) Small interfering RNA (siRNA) duplexes (Dharmacon, Inc., Lafayette, Colo.) (600 pM) were transfected into lung-cancer cell lines LC319 and A549 for CDCA5; NCI-H520 and SBC-5 for EPHA7; LC319 for WDHD1, and esophageal cancer cell line TE9 for WDHD1 using 30 μl of Lipofectamine 2000 (Invitrogen, Carlsbad, Calif.) following the manufacturer's protocol. The transfected cells were cultured for 7 days, and the number of colonies was counted by Giemsa staining, and viability of cells was evaluated by 3-(4,5-dimethylthiazol-2-yl)-2,5-diphenyltetrazolium bromide (MTT) assay (cell counting kit-8 solution; Dojindo Laboratories, Kumanoto, Japan), at 7 days after transfection. To confirm suppression of gene expression, semiquantitative RT-PCR was carried out with synthesized primers described above."}, "NCI-H520 cells": {"test_system": "NCI-H520 cells", "test": "RNA interference assay (oligo based): colony formation and MTT assays", "format": "cell-based, human", "conditions": "7 days after transfection", "protocol": "as §1"}, "EPHA7 [1]": {"test_system": "EPHA7", "test": "RNA interference assay: EPHA7 expression by semiquantitative RT-PCR", "format": "cell-based, human", "conditions": "NCI-H520 and SBC-5 cells; versus control siRNAs (LUC, SCR)", "protocol": "(§2) Total RNA was extracted from cultured cells using Trizol reagent (Life Technologies, Inc. Gaithersburg, Md.) according to the manufacturer's protocol. Extracted RNAs were treated with DNase I (Nippon Gene, Tokyo, Japan) and reversely-transcribed using oligo (dT) primer and SuperScript II. The primer sets for amplification were as follows:\nas §1"}, "WDHD1": {"test_system": "WDHD1", "test": "RNA interference assay: WDHD1 knockdown by RT-PCR", "format": "cell-based, human", "conditions": "A549, LC319 and TE9 cells", "protocol": "as §2, §1"}, "CDCA5 [2]": {"test_system": "CDCA5", "test": "RNA interference assay: CDCA5 expression by semiquantitative RT-PCR", "format": "cell-based, human", "conditions": "A549 and LC319 cells; compared with control siRNA (si-LUC and si-CNT)", "protocol": "as §2, §1"}, "STK31": {"test_system": "STK31", "test": "RNA interference assay (vector based): STK31 knockdown by RT-PCR", "format": "cell-based, human", "conditions": "LC319 cells; controls si-EGFP and si-LUC", "protocol": "as §2\n(§3) The present inventors had established previously a vector-based RNAi system, psiH1BX3.0, which was designed to synthesize small interfering RNAs (siRNA) in mammalian cells (Suzuki C, et al., Cancer Res. 2003 Nov. 1; 63(21): 7038-41). Ten micrograms of siRNA expression vector were transfected using 30 μL Lipofectamine 2000 (Invitrogen) into lung cancer cell lines, LC319 and NCI-H2170. The transfected cells were cultured for 7 days in the presence of appropriate concentrations of geneticin (G418), and the number of colonies was counted by Giemsa staining, and viability of cells was evaluated by 3-(4,5-dimethylthiazol-2-yl)-2,5-diphenyltetrazolium bromide (MTT) assay (cell counting kit-8 solution; Dojindo, Kumamoto, Japan), at 7 days after the G418 treatment. To confirm suppression of STK31 protein expression, Western blotting was carried out with affinity-purified polyclonal antibody to STK31 according to the standard protocol. The target sequences of the synthetic oligonucleotides for RNAi were as follows: […]"}, "LC319 cells": {"test_system": "LC319 cells", "test": "RNA interference assay (vector based): colony formation and MTT assays", "format": "cell-based, human", "conditions": "P<0.001; 7 days with G418", "protocol": "as §3"}, "EPHA7 [3]": {"target": "T1, EPHA7 (Homo sapiens, UniProt Q15375)", "T1 construct": "in vitro kinase assay using active recombinant proteins of cytoplasmic EPHA7, MET, EGFR; purchased Carnabioscience, Kobe, Japan", "T1 sequence (Q15375 577-998 limits assumed)": "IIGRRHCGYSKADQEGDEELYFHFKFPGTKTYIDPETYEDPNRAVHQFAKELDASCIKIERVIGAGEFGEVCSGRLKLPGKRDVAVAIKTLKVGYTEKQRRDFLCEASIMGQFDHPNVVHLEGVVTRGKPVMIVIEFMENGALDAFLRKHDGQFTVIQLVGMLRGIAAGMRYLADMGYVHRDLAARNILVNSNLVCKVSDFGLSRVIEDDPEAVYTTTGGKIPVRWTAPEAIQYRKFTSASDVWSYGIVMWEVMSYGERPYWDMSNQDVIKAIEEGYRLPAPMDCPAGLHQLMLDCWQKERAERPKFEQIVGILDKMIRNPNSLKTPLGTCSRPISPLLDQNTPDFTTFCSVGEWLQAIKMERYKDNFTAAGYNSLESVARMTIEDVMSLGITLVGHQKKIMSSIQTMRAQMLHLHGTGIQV", "test": "In vitro EPHA7 kinase assay: EPHA7 autophosphorylation", "format": "biochemical", "conditions": "at the minimum concentration inhibiting EGFR or MET autophosphorylation (assay used 1 mM AG1478, 12.5 μM SU11274)", "protocol": "Active recombinant EPHA7 (Carnabioscience, Kobe, Japan), EGFR (Millipore, Billerica, Mass.), MET (Millipore), EGFR inhibitor AG1478 (EMD), and MET inhibitor SU11274 were commercially purchased. We constructed plasmids expressing partial fragments of EGFR (#1: codons 692-891, #2: codons 889-1045, #3: codons 1046-1186) that contained GST-tagged epitopes at their N-terminals were prepared using pGEX vector (GE Healthcare Bio-sciences). The recombinant peptides were expressed in Escherichia coli, BL21 codon-plus strain (Stratagene, La Jolla, Calif.), and purified using TALON resin (BD Biosciences Clontech) according to the supplier's protocol. The purified proteins were extracted on an SDS-PAGE gel. […] ATP (GE Healthcare Bio-sciences). After incubation at 30 degrees C. for 30 minutes the reactions were terminated by addition of SDS sample buffer. After boiling, the protein samples were electrophoresed on 5% to 15% gradient gel (Bio-Rad), and then signals were visualized by Molecular imager FX (Bio-Rad). In EPHA7 kinase assay using MET as substrate, we adopted the same protocol as above mentioned EPHA7-EGFR kinase reaction, using 50 ng of MET and 12.5 μM of SU11274 (MET inhibitor; see above), instead of EGFR and AG1478. […] ATP, and detected phosphorylated proteins using anti-pan phospho-tyrosine antibody (Invitrogen)."}, "CDCA5 [4]": {"test_system": "CDCA5", "test": "CDC2-dependent phosphorylation of CDCA5 in mitosis, western blotting", "format": "cell-based", "protocol": "To determine whether endogenous CDCA5 phosphorylation in mitosis was CDC2-dependent, we further treated the lung cancer cells at 5 hours after release from G1/S phase with nocodazole alone or both nocodazole and CDC2 inhibitor CGP74514A, and measured the status of CDCA5 phosphorylation by western blotting. Mitotic cells treated with nocodazole alone gradually expressed phosphorylated CDCA5 (shifted bands) (FIG. 19B)."}, "ERK": {"test_system": "ERK", "conditions": "serum-starved Hela cells, EGF stimulation with 10 μM U0126", "protocol": "(§4) Cultured A549 and LC319 lung cancer cells as well as cervical squamous cell carcinoma Hela cells were synchronized in G1/S phase by 2 μg/ml aphidilcoline for 16 hours incubation. For mitosis synchronization, the cells were released at 0 hour from G1/S phase. Nocodazole was added at 5 hours to prevent mitotic exit. At the point, CDC2 inhibitors or PBS were added to the cell cultures. For the EGF stimulation assay, Hela cells were cultured in FBS free medium for 20 hours. Then, the cells were stimulated by […] EGF for 30 min with or without 10 μM MEK inhibitor U0126 (Promega)"}, "CDCA5 [5]": {"test_system": "CDCA5", "protocol": "as §4"}, "NSCLC": {"test_system": "NSCLC", "conditions": "cited from earlier work"}}}
{"molecule": "5′-AAAAGAGAUGUUGCAGUA-3′ [si-EPHA7-#1]", "values": [{"measurement": "number of colonies and viable cells (MTT), SBC-5 cells, siRNA against EPHA7", "setting": "SBC-5 cells", "result": "slight decreases in colony numbers and cell viability"}, {"measurement": "number of colonies and viable cells (MTT), NCI-H520 cells, siRNA against EPHA7", "setting": "NCI-H520 cells", "result": "slight decreases in colony numbers and cell viability"}, {"measurement": "EPHA7 mRNA levels / EPHA7 expression", "setting": "EPHA7 [1]", "result": "weak reduction of EPHA7 expression"}]}
{"molecule": "5′-GAUCAGACAUGUGCUAUUA UU-3′ (GAUCAGACAUGUGCUAUUAUU; listed as RNA, chemistry not given here) [si-WDHD1-#1]", "values": [{"measurement": "WDHD1 knockdown effect (RT-PCR)", "setting": "WDHD1", "result": "knockdown effect was confirmed"}]}
{"molecule": "5′-GCAGUUUGAUCUCCUGGUUU-3′ [si-CDCA5-#1]", "values": [{"measurement": "expression of CDCA5", "setting": "CDCA5 [2]", "result": "significantly suppressed expression of CDCA5"}]}
{"molecule": "5′-GCCAGAGACUUGGAAAUGU UU-3′ [si-CDCA5-#2]", "values": [{"measurement": "expression of CDCA5", "setting": "CDCA5 [2]", "result": "significantly suppressed expression of CDCA5"}]}
{"molecule": "5′-GGAGATAGCTCTGGTTGAT-3′ [si-STK31-#1]", "values": [{"measurement": "STK31 knockdown effect (RT-PCR)", "setting": "STK31", "result": "knockdown effect was confirmed"}, {"measurement": "number of LC319 cells (MTT and colony-formation assays), siRNA against STK31", "setting": "LC319 cells", "result": "drastic reduction in the number of cells"}]}
{"molecule": "5′-GGGCTATTCTGTGGATGTT-3′ [si-STK31-#2]", "values": [{"measurement": "STK31 knockdown effect (RT-PCR)", "setting": "STK31", "result": "knockdown effect was confirmed"}, {"measurement": "number of LC319 cells (MTT and colony-formation assays), siRNA against STK31", "setting": "LC319 cells", "result": "drastic reduction in the number of cells"}]}
{"molecule": "5′-UAGCAAAGCUGACCAAGAA-3′ [si-EPHA7-#2]", "values": [{"measurement": "number of colonies and viable cells (MTT), SBC-5 cells, siRNA against EPHA7", "setting": "SBC-5 cells", "result": "significant decreases in the number of colonies formed and in the numbers of viable cells"}, {"measurement": "number of colonies and viable cells (MTT), NCI-H520 cells, siRNA against EPHA7", "setting": "NCI-H520 cells", "result": "significant decreases in the number of colonies formed and in the numbers of viable cells"}, {"measurement": "EPHA7 mRNA levels / EPHA7 expression", "setting": "EPHA7 [1]", "result": "significantly decreased"}]}
{"molecule": "COc1cc2ncnc(Nc3cccc(Cl)c3)c2cc1OC", "note": "[AG1478]", "values": [{"measurement": "EPHA7 autophosphorylation", "setting": "EPHA7 [3]", "result": "did not inhibit EPHA7 autophosphorylation"}]}
{"molecule": "CCn1cnc2c(Nc3cccc(Cl)c3)nc(N[C@@H]3CCCC[C@@H]3N)nc21", "note": "[CGP74514A]", "values": [{"measurement": "CDCA5 phosphorylation in mitosis (upper shifted bands)", "setting": "CDCA5 [4]; added with nocodazole 5 hours after release from G1/S phase", "result": "showed no upper shifted bands indicating that CDCA5 phosphorylation in mitosis was significantly inhibited"}, {"measurement": "stability of CDCA5 protein", "setting": "CDCA5 [4]; cells treated with CDC2 inhibitor (FIG. 19C)", "result": "seems to be unstable"}]}
{"molecule": "Cc1[nH]c(/C=C2\\C(=O)Nc3ccc(S(=O)(=O)N(C)c4cccc(Cl)c4)cc32)c(C)c1C(=O)N1CCN(C)CC1", "note": "[SU11274]", "values": [{"measurement": "EPHA7 autophosphorylation", "setting": "EPHA7 [3]", "result": "did not inhibit EPHA7 autophosphorylation"}]}
{"molecule": "N#CC(=C(/N)Sc1ccccc1N)/C(C#N)=C(\\N)Sc1ccccc1N", "note": "[U0126]", "values": [{"measurement": "levels of ERK phosphorylation", "setting": "ERK", "result": "reduced the levels of ERK phosphorylation"}, {"measurement": "signal of spot no. 2 of myc-tagged CDCA5, 2D-western-blotting", "setting": "CDCA5 [5]; Hela cells, EGF, U0126 treatment", "result": "reduced"}, {"measurement": "shifted spots with more acidic pI (spots no. 3 and 4) of myc-tagged CDCA5, 2D-western-blotting", "setting": "CDCA5 [5]; Hela cells, EGF, pre-incubation with U0126", "result": "significantly reduced"}, {"measurement": "upper shift of CDCA5 band (endogenous CDCA5 phosphorylation)", "setting": "CDCA5 [5]; serum-starved Hela cells, EGF stimulation with 10 μM U0126", "result": "completely inhibited the upper shift of CDCA5 band"}]}
{"molecule": "O=C1Cc2c([nH]c3ccc([N+](=O)[O-])cc23)-c2ccccc2N1", "note": "[alsterpaullone]", "values": [{"measurement": "CDC2-inhibitory activity relative to CGP74514A", "setting": "CDCA5 [4]", "result": "lower compared with the other CDC2 inhibitor CGP74514A"}, {"measurement": "CDCA5 phosphorylation in mitosis", "setting": "CDCA5 [4]; 4 μM, with nocodazole 5 hours after release from G1/S phase", "result": "could strictly inhibit CDCA5 phosphorylation"}]}
{"molecule": "C#Cc1cccc(Nc2ncnc3cc(OCCOC)c(OCCOC)cc23)c1", "note": "[erlotinib]", "values": [{"measurement": "median survival", "setting": "NSCLC; NSCLC patients, placebo 4.7 months (Shepherd et al. 2005)", "result": 6.7, "unit": "months"}]}
{"molecule": "COc1cc2ncnc(Nc3ccc(F)c(Cl)c3)c2cc1OCCCN1CCOCC1", "note": "[gefitinib]", "values": [{"measurement": "clinical outcome", "setting": "NSCLC; NSCLC (Giaccone 2004; Baselga 2004)", "result": "superior response rate and symptom control"}]}
